The values below come from article PMC11391541, “Target-Directed Dynamic Combinatorial Chemistry Affords Binders of Mycobacterium tuberculosis IspE” (ACS Omega, 2024).

Molecules are shown by their SMILES. ≈ marks a conversion by molar mass, not a printed value. Where “and” joins values, the source holds several entries; their conditions need not be identical. Equal entries are not always repeated.

The target in data set [1] is T1, MtbIspE (Mycobacterium tuberculosis, UniProt P9WKG7). Description: MtbIspE binding study via thermal shift assay. Conditions: read-out: MtbIspE ΔTm at 20 μM.
The nature of another data set: physchem. The settings on record: aqueous with cosolvent or surfactant or cyclodextrin, kinetic from dmso stock, solubility 5% DMSO in PBS.
Another data set relates to EcTolC. Put plainly: microbe, parasite or virus in culture. In kind it is cell-based. The settings on record: Escherichia coli, 18 h, LB medium, read-out: EcTolC %inh. At 50 μM.
For the next data set, the system named is EcK12. Put plainly: E. coli growth inhibition, wild-type strain K12. In kind it is cell-based, Escherichia coli. Conditions: 18 h, LB medium; for inhibition at 50 µM: Escherichia coli, read-out: EcK12 %inh. At 50 μM.
Data set [2] deals with T1, MtbIspE. Put plainly: MtbIspE binding study via MicroScale Thermophoresis (MST). The settings on record: for MtbIspE binding at 20 μM: MST, 20 μM ligand, 200 nM MtbIspE, triplicate, qualitative.
Data set [3] concerns the target T1, MtbIspE. Description: target-directed dynamic combinatorial chemistry (tdDCC), amplification of acylhydrazones in protein-templated vs blank DCL (HPLC-MS/MS, UV 310 nm). In kind it is binding. How it is done: In this study, we used MtbIspE as target protein and the reversible reaction of hydrazides and aldehydes to form dynamic combinatorial libraries (DCLs) of acylhydrazones. […] To accelerate the reaction at neutral pH, aniline was used as nucleophilic catalyst activating the aldehydes.[2],[4],[19] We analyzed the protein’s effect on the DCLs by comparing HPLC-MS/MS data of blank vs protein-templated (PT) experiments. The experiments spanned 3 days, with periodic sampling (every 2 h, followed by two samples per day after 8 h). The addition of NaOH to raise the pH and halt the reactions ensured the sample composition was preserved for analysis.[19] Templated experiments were conducted in duplicate, and the protein was denatured and removed prior to HPLC-MS/MS analysis.
The tdDCC hits and thus potential MtbIspE binders are amplified in the PT experiment compared to the blank experiment. The first step in the analysis of DCLs is the determination of the equilibrium since the amplification factors need to be calculated when the concentration of products is stable. To determine the evolution of the possible products, it is important to measure the characteristic UV absorbance of the acylhydrazones linker (310 nm) during the HPLC-MS/MS run. The resulting UV peaks are assigned to each product using the MS data (Figures S3–S6). The sum of all peak areas is normalized to 100% in order to obtain the respective relative peak area (RPA) for each product. The RPA values represent relative concentrations, determined at each time point of the blank experiment until the values stabilize. […] However, the rest of the compounds are out of range, making a visual inspection difficult. […] The other three libraries behaved in the same way, reaching equilibrium within 24 h and also maintained stable concentrations beyond (Figures S7–S9). To determine the tdDCC hits, we compared the RPAs of the PT experiments to the blanks at 24 h and set a threshold of at least 50% increase in compound formation. In total, 11 acylhydrazones passed our criteria, with amplification factors ranging from […] to 15.5, qualifying them for resynthesis and further evaluation (Figure 3). During the analysis of chromatograms, challenges arose concerning product identification. Some compound peaks were not neatly separated, forcing us to consider them in clusters, others presented two peaks, likely due to isomers, and were considered separately in our evaluation. Lastly, some compounds were detected by MS, but their respective UV signal interfered with the injection peak or was too low for integration (<1%), both in the blank and PT experiments. Consequently, we excluded these compounds from the analysis (Figure S3–S6).
To a well of a 24-well plate, containing Tris buffer (pH 7.0) were added hydrazides (300 μM each, in DMSO), aldehydes (100 μM each, in DMSO), aniline (20 mM, in DMSO), the protein MtbIspE (25 or 40 μM in Tris buffer at pH 7.0), and an additional amount of DMSO to reach a final concentration of 5% in the DCL with 0.5 mL of end-volume. The DCL was allowed to mix on a plate shaker at room temperature and was frequently monitored via LCMS-MS. For analysis, 30 μL of the corresponding library was mixed with 42 μL acetonitrile and 3 μL of NaOH (1 M), the mixture was centrifuged, and the supernatant was used for the analysis. PT experiments were run in duplicates and the protein was omitted for the blank experiments.
High-resolution mass (HRMS) of final products was determined by HPLC-MS/MS using a Thermo Scientific Q Exactive Focus Orbitrap LC -MS/MS system. All compounds were analyzed for purity by LCMS on Acquity UPLC-SQD system from Waters with a gradient elution of Water (Formic acid 0.1%)/Acetonitrile on an HSS - T3 column (2.1 x 50 mm, Waters), 1.8 µm, at 30°C, PDA detection between 240 -320 nm, and MS detection by simultaneous ES+/ES- ionization in a mass range of 150 -800. The flow is set to 0.9 ml/min, and the […]
gradient time is 1.5 min. […]

T1 sequence (P9WKG7 whole entry): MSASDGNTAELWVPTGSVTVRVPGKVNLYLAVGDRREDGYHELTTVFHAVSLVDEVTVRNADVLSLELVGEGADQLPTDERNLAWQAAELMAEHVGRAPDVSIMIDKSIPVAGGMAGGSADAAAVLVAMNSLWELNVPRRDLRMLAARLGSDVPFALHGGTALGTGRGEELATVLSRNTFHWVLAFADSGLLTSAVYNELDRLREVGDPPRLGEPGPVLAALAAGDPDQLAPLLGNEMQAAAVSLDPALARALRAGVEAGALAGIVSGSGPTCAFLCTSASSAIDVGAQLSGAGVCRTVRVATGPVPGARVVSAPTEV

As to `COc1ccc(-c2cc(/C=N/NC(=O)c3cc(CC(C)C)n[nH]3)no2)cc1` [D6, (E)-3-Isobutyl-N′-((5-(4-methoxyphenyl)isoxazol-3-yl)methylene)-1H-pyrazole-5-carbohydrazide], the ΔTm at 20 µM on MtbIspE [1] was below 0.3 °C. The solubility at 5 min in “physchem” worked out at 20 ± 10 µM (≈ 7.35 µg/mL). Further, the inhibition at 50 µM in the data set with EcTolC was 39 ± 6%; with EcK12, below 10%. Further, the “MtbIspE binding at 20 μM” value on MtbIspE [2] is given as “No”. The “Amplification factors (DCL-4)” value at MtbIspE [3] (DCL-4, 24 h, 40 mol % MtbIspE) is on record as 1.0.
For `O=C(N/N=C/c1ccc(C(F)(F)F)cc1)c1cccc(Cl)c1` [K4, (E)-3-Chloro-N′-(4-(trifluoromethyl)benzylidene)benzohydrazide], the ΔTm at 20 µM on MtbIspE [1] came out at 0.7 °C. Further, the solubility at 5 min in the data set “physchem” amounted to 21 ± 6 µM (≈ 6.86 µg/mL). Further, the inhibition at 50 µM in the data set on EcTolC was 38 ± 4%; in the data set on EcK12 it was 12 ± 4%. Moreover, at MtbIspE [2], the “MtbIspE binding at 20 μM” value was “binding in only one measurement and 1/3”. Besides, the “Amplification factor (DCL-2, control compound)” value at MtbIspE [3] (DCL-2, 40 mol % MtbIspE) was 0.0.
With `O=C(N/N=C/c1cc(Cl)ccc1O)c1ccncc1` [L1, (E)-N′-(5-Chloro-2-hydroxybenzylidene)isonicotinohydrazide], the ΔTm at 20 µM on MtbIspE [1] is below 0.3 °C. The amount in solution in the data set “physchem” (solubility at 5 min) came to 108 ± 3 µM (≈ 29.8 µg/mL). Further, the results for the inhibition at 50 µM in the data set on EcTolC and with EcK12 were 52 ± 3% and 18 ± 6%, respectively. Further, the “EcK12 %inh. At 50 μM” value with EcK12 is listed as “appreciable effect”. For the same compound, the “MtbIspE binding at 20 μM” value on MtbIspE [2] was “did not bind and No”. In addition, the “MtbIspE binding in saturation MST experiment” value at MtbIspE [2] (saturation MST experiment) was “no binding”. On MtbIspE [3] (DCL-3, 24 h, 40 mol % MtbIspE, I1 and K1 integrated as one cluster), the “Amplification factors (DCL-3)” value was 4.1.
